These results are taken from patent US9365522B2, “Pyrazole amide derivative” (AMGEN INC., priority 2015, dated 2016).

Molecules are shown by their SMILES.

For the test, the target named is T1, human RORγ-LBD (Homo sapiens, UniProt P51449).
T1 construct: made in house; host or cells: E. coli (BL-21)
T1 sequence (P51449 262-518): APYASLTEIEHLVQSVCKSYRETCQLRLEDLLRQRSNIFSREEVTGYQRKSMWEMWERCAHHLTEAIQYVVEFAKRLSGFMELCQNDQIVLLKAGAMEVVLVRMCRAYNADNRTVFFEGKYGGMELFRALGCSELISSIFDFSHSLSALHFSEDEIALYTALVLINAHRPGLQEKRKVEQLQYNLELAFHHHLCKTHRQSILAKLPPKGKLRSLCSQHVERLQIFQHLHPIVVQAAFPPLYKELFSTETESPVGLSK
Nature of the test: ROR gamma coactivator peptide recruitment Alphascreen assay (RORγ-LBD binding to GRIP1 coactivator peptide). It counts as biochemical. To be noted: 5 nM human RORγ-LBD, 30 nM 7-β-hydroxycholesterol, 50 nM biotinylated GRIP1 coactivator peptide, overnight incubation at room temperature; read-out: result (pIC50, RORγ coactivator peptide recruitment Alphascreen assay) (converted). The text has this: Alphascreen™ is a bead-based amplified homogenous luminescent proximity assay that can be used for measuring the effect of compounds on protein-protein interactions. When biological interactions bring donor and acceptor beads into close proximity, reactive oxygen, generated upon laser excitation of the donor beads, initiates a luminescence/fluorescence cascade in the acceptor beads that leads to a highly amplified signal that can be measured as light in the 520-620 nm range. When the acceptor and donor beads are not in proximity, the reactive oxygen decays and only a very low background signal is generated.
An in vitro assay to assess inhibition of RORγ binding to the coactivator GRIP1 was established using Alphascreen™ technology. The interaction between nuclear receptors (NR) and coactivator proteins is a key step in signal transduction from the receptor to the transcriptional machinery and can be measured in vitro using only the ligand binding domain of the nuclear receptor and a peptide containing a coactivator protein LXXLL nuclear receptor binding motif
For the RORγ construct used in the coactivator recruitment assay, nucleotides corresponding to the ligand binding domain (LBD) of wild type human RORγ (amino acids 262-518 of Genbank Accession No. NM_005060.3) were cloned into the pET24 expression vector (Novagen), downstream of in-frame N-terminal 6×His and Flag tag sequences. Recombinant 6×His:Flag-tagged human RORγ-LBD protein was expressed in E. coli (BL-21) and purified by affinity chromatography on a nickel Sepharose column, followed by anion exchange chromatography.
A 4× assay mixture of 6×His:Flag-tagged human RORγ-LBD with the agonist ligand 7-β-hydroxycholesterol was prepared in assay buffer (50 mM HEPES pH 7.4, BSA 0.05%, 150 mM NaCl, 5 mM MgCl2, 1 mM DTT, 0.01% Tween-20). For control wells a 4× mixture of 6×His:Flag-tagged human ROR gamma LBD alone was also prepared.
A 4× stock of biotinylated coactivator peptide containing the LXXLL motif from GRIP1 (Biotin-[…]) was prepared in assay buffer.
A 4×detection mixture of nickel chelate Alphascreen™ acceptor beads (PerkinElmer) and streptavidin Alphascreen™ donor beads (PerkinElmer) was prepared in assay buffer.
Compounds to be tested were arranged in a pre-dose 384-well mother plate serially diluted 1 in 2 over 22 columns, in 100% DMSO, at 40× the final test concentration, from a high concentration of 4 mM. DMSO with no compound was placed in control columns. The compounds were robotically dispensed directly into assay plates containing assay buffer to a 4× final test concentration.
Following compound addition, the 6×His:Flag-tagged human RORγ-LBD plus 7-β-hydroxycholesterol assay mixture, biotinylated coactivator peptide and detection mixture were added. Final assay conditions were 5 nM 6×His:Flag-tagged human RORγ-LBD, 30 nM 7-β-hydroxycholesterol, 50 nM biotinylated coactivator peptide, 2.5 ug/ml nickel acceptor beads and 10 ug/ml streptavidin donor beads. The final concentration of DMSO in the assay was 2.5%.
After overnight incubation at room temperature plates were read on and Envision™ plate reader (PerkinElmer).
Data was plotted and pIC50 values were calculated using the Genedata Screener™ data analysis suite (Genedata).
In general terms: Bead proximity is the source of the signal in Alpha formats.

With `CC(C)(C)CN(CC(=O)c1c(Cl)cncc1Cl)C(=O)c1cnn([C@H]2C[C@]3(C[C@H](C(=O)O)C3)C2)c1C(F)(F)F` (single isomer, unassigned) [Example 837], the IC50 was 3.72 nM.

On to `C[C@H]1C[C@@](C)(C(=O)O)CCC1n1ncc(C(=O)N(CC(=O)c2c(Cl)cncc2Cl)CC(C)(C)C)c1C(F)(F)F` (single isomer, unassigned) [Example 843], for which the IC50 was 5.89 nM.

For the compound `CC1(C)[C@@H]2C[C@H](N(CC(=O)c3c(Cl)cccc3Cl)C(=O)c3cnn([C@H]4C[C@@H](CC(=O)O)C4)c3C(F)(F)F)C[C@@H]21` (single isomer, unassigned) [Example 858], the IC50 is 2 nM.

As to `C[C@H]1C[C@@H](n2ncc(C(=O)N(CC(=O)c3c(Cl)cncc3Cl)CC(C)(C)C(F)(F)F)c2C(F)(F)F)CC[C@@H]1C(=O)O` (single isomer, unassigned) [Example 879], the IC50 is 2.95 nM.

As for `Cc1cc(Cl)c(CCN(CC2(C)CCCCC2)C(=O)c2cnn(C3CCC(C(=O)O)CC3)c2C(F)(F)F)c(Cl)c1` (stereo in doubt) [Example 511, trans-4-(4-((2-(2,6-dichloro-4-methylphenyl)ethyl)((1-methylcyclohexyl)methyl)carbamoyl)-5-(trifluoromethyl)-1H-pyrazol-1-yl)cyclohexanecarboxylic acid], the IC50 is 1.86 nM.

Regarding `Cc1cc(Cl)c(CCN(CC(C)(C)C)C(=O)c2cnn(C3CCC(C(=O)O)CC3)c2C(F)(F)F)c(Cl)c1` (stereo in doubt) [Example 512, trans-4-(4-((2-(2,6-dichloro-4-methylphenyl)ethyl)(2,2 - dimethylpropyl)carbamoyl)-5-(trifluoromethyl)-1H-pyrazol-1-yl)cyclohexanecarboxylic acid], the IC50 was 7.24 nM.

With `Cc1cc(Cl)c(C(=O)CN(C(=O)c2cnn(C3CCC(C(=O)O)CC3)c2C(F)(F)F)C2CCC(C)(C)CC2)c(Cl)c1` (stereo in doubt) [Example 516, trans-4-(4-((2-(2,6-dichloro-4-methylphenyl)-2-oxoethyl)(4,4-dimethylcyclohexyl)carbamoyl)-5-(trifluoromethyl)-1H-pyrazol-1-yl)-1-cyclohexanecarboxylic acid], the IC50 is 6.03 nM.

`C[C@@H]1C[C@@H](n2ncc(C(=O)N(CC(=O)c3c(Cl)cccc3Cl)CC3CC(C)(C)C3)c2C(F)(F)F)CC[C@@H]1C(=O)O` (stereo in doubt) [Example 572, (1S,2R,4S)-4-(4-((2-(2,6-dichlorophenyl)-2-oxoethyl)((3,3-dimethylcyclobutyl)methyl)carbamoyl) 5-(trifluoromethyl)-1H-pyrazol-1-yl)-2-methylcyclohexanecarboxylic acid]: the IC50 was 4.68 nM.

On to `C=CC[C@@H]1CCCC[C@@H]1n1ncc(C(=O)N(CC(=O)c2c(Cl)cncc2Cl)CC(C)(C)C)c1C(F)(F)F` (stereo in doubt) [Example 586, N-(2-(3,5-dichloro-4-pyridinyl)-2-oxoethyl)-N-(2,2-dimethylpropyl)-1-((1S,2S)-2-(2-propen-1-yl)cyclohexyl)-5-(trifluoromethyl)-1H-pyrazole-4-carboxamide], for which the IC50 was 331 nM.

`O=C(CN(CC1(F)CCCC1)C(=O)c1cnn(C2CCC(C(=O)O)CC2)c1C(F)(F)F)c1c(Cl)cccc1Cl` (stereo in doubt) [Example 603, cis-4-(4-((2-(2,6-dichlorophenyl)-2-oxoethyl)((1-fluorocyclopentyl)methyl)carbamoyl)-5-(trifluoromethyl)-1H-pyrazol-1-yl)cyclohexanecarboxylic acid]: the IC50 was 49 nM.

`O=C(O)C1CCC(n2ncc(C(=O)N(CCc3c(Cl)cncc3Cl)CC3(F)CCCC3)c2C(F)(F)F)CC1` (stereo in doubt) [Example 609, cis-4-(4-((2-(3,5-dichloro-4-pyridinyl)ethyl)((1-fluorocyclopentyl)methyl)carbamoyl)-5-(trifluoromethyl)-1H-pyrazol-1-yl)cyclohexanecarboxylic acid]: the IC50 was 95.5 nM.

In the case of `O=C(CN(C(=O)c1cnn([C@H]2CC[C@@H](C(=O)O)CC2)c1C(F)(F)F)C1CCC12CCCC2)c1c(Cl)cccc1Cl` (stereo in doubt) [Example 627, cis-4-(4-((2-(2,6-dichlorophenyl)-2-oxoethyl)((1R)-spiro[3.4]oct-1-yl)carbamoyl)-5-(trifluoromethyl)-1H-pyrazol-1-yl)cyclohexanecarboxylic acid], the IC50 was 64.6 nM.

In the case of `C[C@@H]1C[C@@H](n2ncc(C(=O)N(CC(=O)c3c(Cl)cncc3Cl)CC3(F)CC3)c2C(F)(F)F)CC[C@@H]1C(=O)O` (stereo in doubt) [Example 736, (1S,2R,4S)-4-(4-((2-(3,5-dichloro-4-pyridinyl)-2-oxoethyl)((1-fluorocyclopropyl)methyl)carbamoyl)-5-(trifluoromethyl)-1H-pyrazol-1-yl)-2-methylcyclohexanecarboxylic acid], the IC50 is 110 nM.

`C[C@H]1C[C@H](n2ncc(C(=O)N(CC(=O)c3c(Cl)cncc3Cl)CC3(F)CC3)c2C(F)(F)F)CC[C@H]1C(=O)O` (stereo in doubt) [Example 737, (1R,2S,4R)-4-(4-((2-(3,5-dichloro-4-pyridinyl)-2-oxoethyl)((1-fluorocyclopropyl)methyl)carbamoyl)-5-(trifluoromethyl)-1H-pyrazol-1-yl)-2-methylcyclohexanecarboxylic acid]: the IC50 is 14.1 nM.

Consider `C[C@H]1C[C@H](n2ncc(C(=O)N(CC(=O)c3c(Cl)cncc3Cl)C[C@@H]3CCC(C)(C)O3)c2C(F)(F)F)CCC1C(=O)O` (stereo in doubt) [Example 773, (1S,2S,4R)-4-(4-((2-(3,5-dichloro-4-pyridinyl)-2-oxoethyl)(((2S)-5,5-dimethyltetrahydro-2-furanyl)methyl)carbamoyl)-5-(trifluoromethyl)-1H-pyrazol-1-yl)-2-methylcyclohexanecarboxylic acid], for which the IC50 was 81.3 nM.

On to `C[C@@H]1CC(n2ncc(C(=O)N(CC(=O)c3c(Cl)cccc3Cl)CC(C)(C)C)c2C(F)(F)F)CCC1C(=O)O` (stereo in doubt) [Example 794, (1S,2R,4S)-4-(4-((2-(2,6-dichlorophenyl)-2-oxoethyl)(2,2-dimethylpropyl)carbamoyl)-5-(trifluoromethyl)-1H-pyrazol-1-yl)-2-methylcyclohexanecarboxylic acid], for which the IC50 was 2.95 nM.

As for `C[C@H]1C[C@](C)(C(=O)O)CC[C@H]1n1ncc(C(=O)N(CC(=O)c2c(Cl)cncc2Cl)CC(C)(C)C)c1C(F)(F)F` (stereo in doubt) [Example 842, (1R,3S,4R)-4-(4-((2-(3,5-dichloro-4-pyridinyl)-2-oxoethyl)(2,2-dimethylpropyl)carbamoyl)-5-(trifluoromethyl)-1H-pyrazol-1-yl)-1,3-dimethylcyclohexanecarboxylic acid], the IC50 was 309 nM.

On to `C[C@@H]1C[C@](C)(C(=O)O)CC[C@H]1n1ncc(C(=O)N(CC(=O)c2c(Cl)cncc2Cl)CC(C)(C)C)c1C(F)(F)F` (stereo in doubt) [Example 855, (1R,3R,4R)-4-(4-((2-(3,5-dichloro-4-pyridinyl)-2-oxoethyl)(2,2-dimethylpropyl)carbamoyl)-5-(trifluoromethyl)-1H-pyrazol-1-yl)-1,3-dimethylcyclohexanecarboxylic acid], for which the IC50 is 5.75 nM.

In the case of `CC1C[C@@H](n2ncc(C(=O)N(CC(=O)c3c(Cl)cncc3Cl)CC(C)(C)C)c2C(F)(F)F)CC[C@]1(C)C(=O)O` (stereo in doubt) [Example 861, (1S,2S,4S)-4-(4-((2-(3,5-dichloro-4-pyridinyl)-2-oxoethyl)(2,2-dimethylpropyl)carbamoyl)-5-(trifluoromethyl)-1H-pyrazol-1-yl)-1,2-dimethylcyclohexanecarboxylic acid], the IC50 is 4.79 nM.
